Laboratory results taken from article PMC12586182 (Frontiers in Oncology, 2025).

Experiments:
Experiment in all cases: Kinase panel profiling at 1 µmol/L (mobility shift assay, Carna)
Assay type in all cases: biochemical
Conditions in all cases: 1 µmol/L of BTK inhibitor
MET = molecular target: T1, MET (Homo sapiens, UniProt P08581)
T1 construct: purchased Carna Biosciences

PKCγ = molecular target: T2, PKCγ (Homo sapiens, UniProt P05129)
T2 construct: purchased Carna Biosciences

PEK = molecular target: T3, PEK (Homo sapiens, UniProt Q9NZJ5)
T3 construct: purchased Carna Biosciences
T3 sequence (Q9NZJ5 30-1116): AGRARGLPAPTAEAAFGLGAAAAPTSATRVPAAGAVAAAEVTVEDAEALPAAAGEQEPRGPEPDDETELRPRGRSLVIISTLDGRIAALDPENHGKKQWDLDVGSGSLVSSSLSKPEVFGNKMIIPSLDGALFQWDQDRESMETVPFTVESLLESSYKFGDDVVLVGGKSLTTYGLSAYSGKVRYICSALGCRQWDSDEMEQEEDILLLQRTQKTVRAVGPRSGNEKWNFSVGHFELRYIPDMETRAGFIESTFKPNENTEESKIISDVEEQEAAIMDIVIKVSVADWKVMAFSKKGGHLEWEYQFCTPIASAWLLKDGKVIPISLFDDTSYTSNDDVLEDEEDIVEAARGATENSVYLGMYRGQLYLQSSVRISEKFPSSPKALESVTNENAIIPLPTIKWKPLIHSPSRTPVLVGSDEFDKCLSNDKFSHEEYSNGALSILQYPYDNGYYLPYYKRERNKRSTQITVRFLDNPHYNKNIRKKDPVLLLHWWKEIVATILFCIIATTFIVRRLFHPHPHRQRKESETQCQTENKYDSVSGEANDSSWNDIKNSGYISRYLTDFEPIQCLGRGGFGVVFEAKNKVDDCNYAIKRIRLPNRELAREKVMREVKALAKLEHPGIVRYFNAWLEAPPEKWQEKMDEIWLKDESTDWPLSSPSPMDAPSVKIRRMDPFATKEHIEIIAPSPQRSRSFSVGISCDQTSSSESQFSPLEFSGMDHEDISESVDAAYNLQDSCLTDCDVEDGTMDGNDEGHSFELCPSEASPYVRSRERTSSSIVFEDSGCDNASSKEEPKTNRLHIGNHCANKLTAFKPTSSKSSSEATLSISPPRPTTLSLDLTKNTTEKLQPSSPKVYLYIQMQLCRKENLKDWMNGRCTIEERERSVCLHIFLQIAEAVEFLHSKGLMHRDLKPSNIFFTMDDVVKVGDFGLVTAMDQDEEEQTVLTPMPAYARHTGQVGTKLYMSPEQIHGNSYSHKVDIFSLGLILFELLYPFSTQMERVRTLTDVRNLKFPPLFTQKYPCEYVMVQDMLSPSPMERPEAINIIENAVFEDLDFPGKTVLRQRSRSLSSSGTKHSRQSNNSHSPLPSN

ACK = molecular target: T4, ACK (Homo sapiens, UniProt Q07912)
T4 construct: purchased Carna Biosciences
T4 sequence (Q07912 whole entry): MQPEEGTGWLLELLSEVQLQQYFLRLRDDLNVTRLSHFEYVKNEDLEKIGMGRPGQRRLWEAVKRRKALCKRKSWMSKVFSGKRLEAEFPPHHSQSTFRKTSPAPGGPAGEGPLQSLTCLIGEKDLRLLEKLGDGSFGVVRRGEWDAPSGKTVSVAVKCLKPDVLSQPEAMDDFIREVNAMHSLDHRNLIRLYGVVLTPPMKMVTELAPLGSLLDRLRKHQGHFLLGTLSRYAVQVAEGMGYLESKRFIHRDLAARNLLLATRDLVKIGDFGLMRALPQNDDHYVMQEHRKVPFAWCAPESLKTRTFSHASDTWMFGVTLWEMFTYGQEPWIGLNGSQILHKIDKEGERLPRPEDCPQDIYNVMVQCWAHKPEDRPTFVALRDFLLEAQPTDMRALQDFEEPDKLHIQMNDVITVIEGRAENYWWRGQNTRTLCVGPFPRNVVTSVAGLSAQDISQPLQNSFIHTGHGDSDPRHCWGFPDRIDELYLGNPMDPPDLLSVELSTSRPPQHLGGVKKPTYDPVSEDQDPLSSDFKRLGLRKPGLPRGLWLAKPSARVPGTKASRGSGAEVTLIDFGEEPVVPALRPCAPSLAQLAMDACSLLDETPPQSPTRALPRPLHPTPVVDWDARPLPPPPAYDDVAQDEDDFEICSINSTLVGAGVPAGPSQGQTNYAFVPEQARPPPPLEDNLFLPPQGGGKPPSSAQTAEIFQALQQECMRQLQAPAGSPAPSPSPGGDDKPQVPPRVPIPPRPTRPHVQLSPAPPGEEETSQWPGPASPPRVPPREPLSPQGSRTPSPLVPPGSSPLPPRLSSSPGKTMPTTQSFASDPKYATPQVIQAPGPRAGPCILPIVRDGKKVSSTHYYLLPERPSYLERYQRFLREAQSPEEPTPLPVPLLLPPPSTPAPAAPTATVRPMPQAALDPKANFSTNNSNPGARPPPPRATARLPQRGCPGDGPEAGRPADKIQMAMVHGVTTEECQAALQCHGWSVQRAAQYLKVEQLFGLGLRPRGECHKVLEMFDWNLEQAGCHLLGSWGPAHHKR

p38δ = molecular target: T5, p38δ (Homo sapiens, UniProt O15264)
T5 construct: purchased Carna Biosciences
T5 sequence (O15264 1-365): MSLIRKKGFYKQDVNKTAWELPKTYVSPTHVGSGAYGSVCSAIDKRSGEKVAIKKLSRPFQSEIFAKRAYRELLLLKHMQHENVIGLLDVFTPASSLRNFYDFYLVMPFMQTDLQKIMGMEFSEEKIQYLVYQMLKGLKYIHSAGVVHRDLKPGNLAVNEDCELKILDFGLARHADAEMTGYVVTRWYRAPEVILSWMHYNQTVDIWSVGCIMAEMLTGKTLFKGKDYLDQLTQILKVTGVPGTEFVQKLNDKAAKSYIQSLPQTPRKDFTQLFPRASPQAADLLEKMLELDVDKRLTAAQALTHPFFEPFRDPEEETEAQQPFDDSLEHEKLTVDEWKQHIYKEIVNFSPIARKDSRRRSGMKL

AXL = molecular target: T6, AXL (Homo sapiens, UniProt P30530)
T6 construct: purchased Carna Biosciences
T6 sequence (P30530 26-894): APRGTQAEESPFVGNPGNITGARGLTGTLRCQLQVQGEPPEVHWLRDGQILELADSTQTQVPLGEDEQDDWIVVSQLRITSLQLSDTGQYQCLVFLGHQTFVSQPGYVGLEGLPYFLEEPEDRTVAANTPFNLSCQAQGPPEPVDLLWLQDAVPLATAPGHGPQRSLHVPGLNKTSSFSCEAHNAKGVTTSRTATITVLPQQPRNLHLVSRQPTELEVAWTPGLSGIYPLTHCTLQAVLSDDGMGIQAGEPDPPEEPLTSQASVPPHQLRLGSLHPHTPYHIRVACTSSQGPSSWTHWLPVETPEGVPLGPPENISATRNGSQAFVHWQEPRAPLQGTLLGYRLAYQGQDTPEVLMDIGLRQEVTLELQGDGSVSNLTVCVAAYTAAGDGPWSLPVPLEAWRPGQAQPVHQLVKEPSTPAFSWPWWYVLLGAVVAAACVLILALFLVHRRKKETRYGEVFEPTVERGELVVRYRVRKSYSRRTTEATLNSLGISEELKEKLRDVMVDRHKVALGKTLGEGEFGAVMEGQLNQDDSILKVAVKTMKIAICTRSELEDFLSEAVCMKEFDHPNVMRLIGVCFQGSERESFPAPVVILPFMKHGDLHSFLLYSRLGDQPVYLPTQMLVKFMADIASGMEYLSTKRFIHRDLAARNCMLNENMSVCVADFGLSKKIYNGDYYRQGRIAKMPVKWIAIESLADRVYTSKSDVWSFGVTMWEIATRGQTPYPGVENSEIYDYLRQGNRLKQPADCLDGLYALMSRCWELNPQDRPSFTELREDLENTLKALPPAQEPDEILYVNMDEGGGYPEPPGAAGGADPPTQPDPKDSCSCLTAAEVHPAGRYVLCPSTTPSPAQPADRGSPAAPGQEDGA

T1 sequence (P08581 25-1390): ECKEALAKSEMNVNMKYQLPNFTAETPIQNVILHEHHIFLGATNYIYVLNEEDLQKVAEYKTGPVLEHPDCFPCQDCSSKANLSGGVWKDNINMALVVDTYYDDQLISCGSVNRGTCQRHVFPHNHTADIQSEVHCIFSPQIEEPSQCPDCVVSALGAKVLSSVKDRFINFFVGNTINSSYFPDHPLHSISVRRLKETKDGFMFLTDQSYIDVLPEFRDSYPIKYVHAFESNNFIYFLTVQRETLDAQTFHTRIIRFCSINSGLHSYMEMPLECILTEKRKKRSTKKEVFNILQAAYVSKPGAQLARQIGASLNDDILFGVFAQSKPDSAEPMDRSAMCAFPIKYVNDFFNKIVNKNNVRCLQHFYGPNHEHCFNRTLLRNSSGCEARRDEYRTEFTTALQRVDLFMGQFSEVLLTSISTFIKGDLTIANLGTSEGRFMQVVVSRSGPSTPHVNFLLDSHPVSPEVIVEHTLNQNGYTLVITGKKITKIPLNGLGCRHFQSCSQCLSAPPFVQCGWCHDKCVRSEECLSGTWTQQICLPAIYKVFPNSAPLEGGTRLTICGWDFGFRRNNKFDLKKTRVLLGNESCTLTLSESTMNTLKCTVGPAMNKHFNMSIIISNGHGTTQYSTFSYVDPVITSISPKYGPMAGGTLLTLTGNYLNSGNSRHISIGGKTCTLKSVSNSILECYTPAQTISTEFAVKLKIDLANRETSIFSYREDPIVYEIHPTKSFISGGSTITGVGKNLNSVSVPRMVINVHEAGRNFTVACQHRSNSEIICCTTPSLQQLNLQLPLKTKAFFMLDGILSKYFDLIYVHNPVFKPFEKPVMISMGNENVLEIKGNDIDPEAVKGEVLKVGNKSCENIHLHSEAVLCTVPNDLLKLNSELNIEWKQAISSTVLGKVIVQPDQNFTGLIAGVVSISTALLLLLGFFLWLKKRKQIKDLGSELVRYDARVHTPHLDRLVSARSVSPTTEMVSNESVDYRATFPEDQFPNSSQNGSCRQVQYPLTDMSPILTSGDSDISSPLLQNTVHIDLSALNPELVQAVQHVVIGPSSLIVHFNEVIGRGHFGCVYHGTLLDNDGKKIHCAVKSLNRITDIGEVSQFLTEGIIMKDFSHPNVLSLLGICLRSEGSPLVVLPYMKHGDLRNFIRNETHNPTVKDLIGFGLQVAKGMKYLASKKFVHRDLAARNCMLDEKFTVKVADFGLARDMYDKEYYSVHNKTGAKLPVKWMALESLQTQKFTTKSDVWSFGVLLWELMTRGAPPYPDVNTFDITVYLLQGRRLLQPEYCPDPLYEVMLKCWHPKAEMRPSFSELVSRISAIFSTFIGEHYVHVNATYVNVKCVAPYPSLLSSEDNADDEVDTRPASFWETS

C=CC(=O)N1CCC([C@@H]2CCNc3c(C(N)=O)c(-c4ccc(Oc5ccccc5)cc4)nn32)CC1 [zanubrutinib]
Percentage inhibition of kinase enzyme activity (MET): 1.41%

CC#CC(=O)N1CCC[C@H]1c1nc(-c2ccc(C(=O)Nc3ccccn3)cc2)c2c(N)nccn12 [acalabrutinib]
Percentage inhibition of kinase enzyme activity (PKCγ): -7.43% | Percentage inhibition of kinase enzyme activity (PEK): 8.39% | Percentage inhibition of kinase enzyme activity (MET): 3.91% | Percentage inhibition of kinase enzyme activity (ACK): 14.06% | Percentage inhibition of kinase enzyme activity (p38δ): -1.74% | Percentage inhibition of kinase enzyme activity (AXL): -0.46%

COc1ccc(F)cc1C(=O)NCc1ccc(-c2nn([C@@H](C)C(F)(F)F)c(N)c2C(N)=O)cc1 [pirtobrutinib]
Percentage inhibition of kinase enzyme activity (PKCγ): 3.04% | Percentage inhibition of kinase enzyme activity (PEK): -9.35% | Percentage inhibition of kinase enzyme activity (MET): 1.44% | Percentage inhibition of kinase enzyme activity (ACK): 13.05% | Percentage inhibition of kinase enzyme activity (p38δ): -1.92% | Percentage inhibition of kinase enzyme activity (AXL): -1.48%

O=C(c1ccc(Oc2ccccc2)cc1Cl)c1c[nH]c2ncnc(N[C@@H]3CC[C@@H](CO)OC3)c12 [nemtabrutinib]
Percentage inhibition of kinase enzyme activity (PKCγ): 0.06% | Percentage inhibition of kinase enzyme activity (PEK): 49.66% | Percentage inhibition of kinase enzyme activity (MET): 42.98% | Percentage inhibition of kinase enzyme activity (ACK): 98.62% | Percentage inhibition of kinase enzyme activity (p38δ): -5.79% | Percentage inhibition of kinase enzyme activity (AXL): 84.52%

C=CC(=O)N1CCC[C@@H](n2nc(-c3ccc(Oc4ccccc4)cc3)c3c(N)ncnc32)C1 [ibrutinib]
Percentage inhibition of kinase enzyme activity (PKCγ): 0.80% | Percentage inhibition of kinase enzyme activity (PEK): 7.47% | Percentage inhibition of kinase enzyme activity (MET): 11.55% | Percentage inhibition of kinase enzyme activity (ACK): 72.74% | Percentage inhibition of kinase enzyme activity (p38δ): -3.68% | Percentage inhibition of kinase enzyme activity (AXL): 8.97%
